Assays:
[1] = system: L. donovani infected macrophages; test: Infected macrophage assay, L. donovani; format: cell-based; settings: for Macrophage IC50 L. donovani: J774.G8 mouse macrophages, 72 hours, 37° C., number of infected macrophages inhibited by 50%
Source text: (§1) A one week old, confluent culture of J774.G8 mouse macrophages was washed three times with Hank's Balanced Salt Solution (HBSS) without calcium and magnesium (Sigma, St. Louis, Mo.). The J774.G8 mouse macrophages are a continuous cell line that have been cited in the literature as supporting continuous and intracellular growth of various Leishmania sp. and they have been used for drug assays against intracellular parasites, Trypanosoma cruzi and Leishmania sp. See Alcina, A., et al. (1988) Antimicrobial Agents & Chemotherapy. 32(9):1412-5; Mendez, S., et al. (1996) International Journal for Parasitology 26(6):619-22; Hodgkinson, V. H., et al. (1996) Experimental Parasitology 83(1):94-105; and Chang, K. P. (1980) Science 209(4462): 1240-42, which are herein incorporated by reference.
(§2) The macrophages were then incubated at 37° C. in a humidified 5% CO2 incubator for 15 minutes with a Trypsin-EDTA (0.05% Trypsin, 0.53 mM EDTA 4Na) solution (GIBCO BRL, Grand Island, N.Y.). The macrophages were then detached with a cell scraper and suspended by vigorous pipetting. The macrophages were then mixed with a late log phase culture of L. mexicana promastigotes to yield a solution comprising about 5×10^5 macrophages per ml and about 25×10^5 promastigotes per ml in DMEM (pH 7.4) supplemented with 10% heat inactivated fetal calf serum comprising penicillin (50 units/ml) and streptomycin (50 μg/ml).
(§3) The macrophage-parasite mixture was then pipetted into 96-well flat-bottom plates (Costar, Cambridge, Mass.) at 200 μl per well. Infection and attachment of the macrophages was allowed to occur over a period of about 48 hours at 33° C. in a humidified 5% CO2 incubator. The wells were washed three times with HBSS to remove extracellular parasites. Each well was then treated with serial dilutions of a given candidate compound in DMEM.
(§4) The treated plate was incubated for about 72 hours at 33° C. in a humidified 5% CO2 incubator. The macrophages in each well were detached into the DMEM used for the incubation by pipetting and scraping with the tip of a microliter pipettor. 75 μl of the cell suspension was transferred to a cytospin funnel and the cells were centrifuged onto microscope slides at 800 rpm for 5 minutes using a Cytospin centrifuge (Shandon, Pittsburgh, Pa.).
(§5) The slides were air dried and then fixed in methanol for 5 seconds. After the methanol evaporated, the slides were stained with 5% Giemsa stain (Fisher, Suwanee, Ga.) in phosphate buffer comprising 3.1 mM potassium phosphate dibasic and 8.3 mM sodium phosphate monobasic for 45 minutes. After thorough washing with flowing tap water, the slides were air dried and then viewed by oil immersion microscopy to determine percentage of infected cells. A cell was considered to be infected if it comprised one or more amastigote with a visible parasite nucleus and kinetoplast. Counting parasites and counting infected cells provided similar results when determining IC50 values.
(§6) The IC50 values (the concentration of the compound that inhibited the number of infected macrophages by 50%) were determined with the software program TableCurve (SPSS Science, Chicago, Ill.) using the following dose-response equation: y=a+b/(1+(x/c)^d), where x=the drug concentration, y=absorbance at 490 nm, a=upper asymptote, b=slope, c=IC50 and d=lower asymptote. FIG. 3 provides the graphical data obtained for compound 1DWB667 as an example.
The susceptibility of L. donovani infected macrophages to the compounds of the present invention were preformed by a modified protocol for L. mexicana infected macrophages above, wherein all incubations of the parasite infected macrophages were done at 37° C. rather than 33° C. FIG. 4 provides the graphical data for compound 1DWB667 as an example.

[2] = system: L. mexicana infected macrophages; test: Infected macrophage assay, L. mexicana; format: cell-based; settings: for Macrophage IC50 L. mexicana: J774.G8 mouse macrophages, 72 hours, 33° C., number of infected macrophages inhibited by 50%
Experimental: The susceptibilities of L. mexicania infected macrophages to candidate compounds were determined by the following assay.
as §1, §2, §3, §4, §5, §6

J774.G8 macrophages = test: Macrophage toxicity assay (sulforhodamine B); format: cell-based, mouse; settings: for IC50 (macrophage toxicity): 72 hours, 37° C., macrophage growth inhibited by 50%; for toxicity to the macrophage (in words): in vitro
Experimental: The toxicity of the candidate compounds on J774.G8 macrophages was measured using a sulforhodamine B (Molecular Probes, Eugene, Oreg.) based dye assay.
Specifically, a confluent culture of macrophages in a T75 culture flask was harvested by replacing the growth medium (DMEM supplemented with 10% heat inactivated fetal calf serum, 50 units/ml penicillin, and 50 μg/ml streptomycin) with 25 ml of fresh medium and scraping the cells from the bottom of the culture flask. Cell clumps were broken up by gentle pipetting and the cell suspension was transferred to a 50 ml conical centrifuge tube. The cells were then pelleted by centrifugation at 1,000 rpm at 4° C. for 5 minutes. The supernatant was then removed and the cells were resuspended in 15 ml DMEM.
After counting an aliquot of the cell suspension, the macrophages were then diluted to about 1×10^5 cells/ml in DMEM and 180 μl was added to each well of a 96 well tissue culture plate Then 20 μl serial dilutions of a given candidate compound was added. The plate was then placed in a 37° C. humidified 5% CO2 incubator and incubated for 72 hours. Then 50 μl of 50% TCA was added to each well to fix the proteins. The plate was then incubated for at least 1 hour at 4° C.
The liquid contents of the wells were discarded and the wells were washed five times with 200 μl of distilled water. After the final wash the plate was allowed to air dry for 20 minutes. 100 μl of the sulforhodamine B dye (0.4% dye in 1% acetic acid) was added. The plate was then incubated at room temperature for 20 minutes. After discarding the dye solution, the wells were washed five times with 200 μl of 1% acetic acid and then allowed to air dry for 20 minutes. At this time, 50 μl of 10 mM TRIS base was added. After a few minutes of incubation, the absorbance of each well at 490 nm was measured in a SpectraMax Pro microplate reader (Molecular Devices, Sunnyvale, Calif.).
The IC50 values for each candidate compound (the concentration of the agent that inhibited macrophage growth by 50%) were determined for the macrophages with the aid of the program SoftMax Pro (Molecular Devices, Sunnyvale, Calif.) using the following dose response equation: y=((a−d)/1+(x/c)^b)+d, where x=drug concentration; y=absorbance at 490 nm; a=upper asymptote; b=slope; c=IC50; and d=lower asymptote. FIG. 5 provides the graphical data for compound 1DWB667 as an example.

2,5-Bis[2-methyl-4-(2-pyridylimino)aminophenyl]furan [DB 702]
Macrophage IC50 L. donovani [1]: 0.063 µg/mL | Macrophage IC50 L. donovani ([1]; listed as DB702): about 0.1 μg/ml | Macrophage IC50 L. mexicana [2]: 0.220 µg/mL | IC50 (macrophage toxicity) (J774.G8 macrophages): 2.23 µg/mL

2,5-Bis[2-methoxy-4-(2-pyridylimino)aminophenyl]furan [DB 709]
Macrophage IC50 L. donovani [1]: 0.104 µg/mL | Macrophage IC50 L. mexicana [2]: 0.127 µg/mL | Macrophage IC50 L. mexicana ([2]; listed as DB709): about 0.1 μg/ml | IC50 (macrophage toxicity) (J774.G8 macrophages): 0.199 µg/mL | toxicity to the macrophage (in words) (J774.G8 macrophages): toxic to the macrophage in vitro within the same range of toxicity to the amastigote within the macrophage

2,5-Bis[4-(2-pyridylimino)aminophenyl]furan [1DWB 667]
Macrophage IC50 L. donovani [1]: 0.942 µg/mL | Macrophage IC50 L. donovani ([1]; listed as 1DWB667): about 1.4 μg/ml | Macrophage IC50 L. mexicana [2]: 1.37 µg/mL | Macrophage IC50 L. mexicana ([2]; listed as DB667): about 1.4 μg/ml | IC50 (macrophage toxicity) (J774.G8 macrophages): 4.28 µg/mL

2,5-Bis[2-methyl-4-(5-methyl-2-pyridylimino)aminophenyl]furan [DB 710]
Macrophage IC50 L. donovani [1]: 0.530 µg/mL | Macrophage IC50 L. mexicana [2]: 0.094 µg/mL | Macrophage IC50 L. mexicana ([2]; listed as DB710): about 0.1 μg/ml | IC50 (macrophage toxicity) (J774.G8 macrophages): 3.64 µg/mL | toxicity to the macrophage (in words) (J774.G8 macrophages): about less than or equal to DB 702 and 1DWB667

2,5-Bis[2-chloro-4-(2-pyridylimino)aminophenyl]furan [DB 712]
Macrophage IC50 L. donovani [1]: 0.127 µg/mL | reduction of parasite burden in L. donovani infected macrophages (in words) ([1]; in vitro, visceral strain): least effective in reducing parasite burden | Macrophage IC50 L. mexicana [2]: 0.689 µg/mL | reduction of parasite burden in L. mexicana infected macrophages (in words) ([2]; in vitro, cutaneous strain): least effective in reducing parasite burden | IC50 (macrophage toxicity) (J774.G8 macrophages): 3.39 µg/mL | toxicity to the macrophage (in words) (J774.G8 macrophages): about less than or equal to DB 702 and 1DWB667
